Reference: the CheMixHub viscosity set

Test: xn = mol fraction of the nth substance listed

C1CCC2=[NH+]CCCN2CC1.c1nc[n-]n1 + CC(C)O
303.15 K, 100 kPa
Details | viscosity [mPa·s]
x1 = 0.1001 | 7.85
x1 = 0.2 | 11.12
x1 = 0.2999 | 23.38
x1 = 0.4003 | 47.5
x1 = 0.4989 | 98.71
x1 = 0.6002 | 185.2
x1 = 0.7008 | 298.3
x1 = 0.7993 | 439.8
x1 = 0.9002 | 746.1

CC(C)(C)c1ccccc1 + CC(C)c1ccccc1
303.15 K, 101.3 kPa
Details | viscosity [mPa·s]
x2 = 0.039 | 0.9864
x2 = 0.1371 | 0.9507
x2 = 0.2661 | 0.9067
x2 = 0.4247 | 0.8551
x2 = 0.4906 | 0.8347
x2 = 0.6105 | 0.7984
x2 = 0.7457 | 0.7572
x2 = 0.8708 | 0.7224
x2 = 0.9592 | 0.6981

CCCCCCCCCCCCCC(=O)OC + CCC1CCCCC1
viscosity [mPa·s], 100 kPa
Details | x2 = 0.1016 | x2 = 0.2015 | x2 = 0.3 | x2 = 0.4021 | x2 = 0.4997 | x2 = 0.6005 | x2 = 0.7005 | x2 = 0.7999 | x2 = 0.9
293.15 K | 4.029 | 3.57 | 3.134 | 2.705 | 2.312 | 1.944 | 1.626 | 1.342 | 1.089
298.15 K | 3.577 | 3.181 | 2.785 | 2.419 | 2.079 | 1.774 | 1.489 | 1.237 | 1.009
303.15 K | 3.173 | 2.839 | 2.508 | 2.191 | 1.893 | 1.616 | 1.367 | 1.14 | 0.935
308.15 K | 2.804 | 2.513 | 2.231 | 1.948 | 1.701 | 1.469 | 1.248 | 1.045 | 0.862
313.15 K | 2.532 | 2.282 | 2.035 | 1.797 | 1.578 | 1.362 | 1.163 | 0.978 | 0.812
318.15 K | 2.328 | 2.104 | 1.887 | 1.666 | 1.469 | 1.277 | 1.097 | 0.93 | 0.772
323.15 K | 2.1 | 1.912 | 1.724 | 1.541 | 1.361 | 1.184 | 1.018 | 0.866 | 0.723

Cc1ccccc1O + CCC(=O)O
viscosity [mPa·s], 101 kPa
Details | x2 = 0.1315 | x2 = 0.2542 | x2 = 0.3688 | x2 = 0.4761 | x2 = 0.5768 | x2 = 0.6716 | x2 = 0.7608 | x2 = 0.845 | x2 = 0.9246
298.15 K | 6.126 | 4.978 | 4.056 | 3.325 | 2.73 | 2.216 | 1.816 | 1.505 | 1.253
308.15 K | 4.701 | 3.949 | 3.325 | 2.79 | 2.329 | 1.93 | 1.606 | 1.33 | 1.1
318.15 K | 3.245 | 2.875 | 2.527 | 2.198 | 1.885 | 1.6 | 1.333 | 1.126 | 0.9354

CC(C)CO + CCC(C)O
Details | viscosity [mPa·s]
313.15 K, 101 kPa, x2 = 0.3008 | 2.005

Cc1ccccc1O + CCCC(=O)O
viscosity [mPa·s], 101 kPa
Details | x2 = 0.1104 | x2 = 0.2183 | x2 = 0.3237 | x2 = 0.4268 | x2 = 0.5276 | x2 = 0.6262 | x2 = 0.7227 | x2 = 0.8171 | x2 = 0.9095
298.15 K | 6.565 | 5.731 | 4.976 | 4.317 | 3.725 | 3.167 | 2.698 | 2.265 | 1.862
308.15 K | 4.973 | 4.431 | 3.973 | 3.534 | 3.113 | 2.687 | 2.294 | 1.936 | 1.575
318.15 K | 3.375 | 3.191 | 2.968 | 2.723 | 2.463 | 2.194 | 1.914 | 1.62 | 1.307

C=CC(=O)OC + CCCCC(C)O
viscosity [mPa·s], 101 kPa
Details | 298.15 K | 308.15 K
x1 = 0.05507 | 3.631 | 2.614
x1 = 0.1 | 3.287 | 2.387
x1 = 0.1554 | 2.908 | 2.136
x1 = 0.1998 | 2.636 | 1.953
x1 = 0.2554 | 2.331 | 1.746
x1 = 0.2999 | 2.112 | 1.596
x1 = 0.3554 | 1.868 | 1.428
x1 = 0.3999 | 1.693 | 1.305
x1 = 0.4555 | 1.497 | 1.167
x1 = 0.4999 | 1.357 | 1.067
x1 = 0.5554 | 1.2 | 0.954
x1 = 0.5999 | 1.088 | 0.872
x1 = 0.6551 | 0.963 | 0.781
x1 = 0.7 | 0.872 | 0.713
x1 = 0.755 | 0.772 | 0.638
x1 = 0.7998 | 0.699 | 0.583
x1 = 0.8555 | 0.618 | 0.522
x1 = 0.8999 | 0.56 | 0.477
x1 = 0.9555 | 0.495 | 0.426

C=CC(=O)OCCCC + CCCCC(C)O
viscosity [mPa·s], 101 kPa
Details | 298.15 K | 308.15 K
x1 = 0.05546 | 3.742 | 2.694
x1 = 0.0999 | 3.477 | 2.526
x1 = 0.1555 | 3.172 | 2.33
x1 = 0.1999 | 2.948 | 2.185
x1 = 0.2554 | 2.69 | 2.015
x1 = 0.3 | 2.499 | 1.889
x1 = 0.3555 | 2.28 | 1.743
x1 = 0.4 | 2.119 | 1.634
x1 = 0.4553 | 1.934 | 1.508
x1 = 0.5 | 1.796 | 1.413
x1 = 0.5556 | 1.639 | 1.304
x1 = 0.5998 | 1.523 | 1.222
x1 = 0.6554 | 1.39 | 1.128
x1 = 0.6998 | 1.291 | 1.057
x1 = 0.7554 | 1.178 | 0.957
x1 = 0.8 | 1.095 | 0.914
x1 = 0.8554 | 0.999 | 0.844
x1 = 0.9 | 0.928 | 0.791
x1 = 0.9555 | 0.847 | 0.729

CC1=CCC2CC1C2(C)C (configuration not stated) + CCCCCC
298.15 K, 101.33 kPa
Details | viscosity [mPa·s]
x2 = 0.0422 | 1.207
x2 = 0.06195 | 1.165
x2 = 0.1087 | 1.077
x2 = 0.254 | 0.842
x2 = 0.3759 | 0.699
x2 = 0.5049 | 0.577
x2 = 0.6267 | 0.487
x2 = 0.7168 | 0.43
x2 = 0.867 | 0.355
x2 = 0.9244 | 0.326
x2 = 0.9625 | 0.31

CCCCCOC(C)=O + CCCCCC
303.15 K, 101.3 kPa
Details | viscosity [mPa·s]
x1 = 0.1004 | 0.303
x1 = 0.2054 | 0.3329
x1 = 0.298 | 0.3626
x1 = 0.403 | 0.4007
x1 = 0.5009 | 0.443
x1 = 0.6017 | 0.4937
x1 = 0.6958 | 0.5456
x1 = 0.8016 | 0.6101
x1 = 0.8978 | 0.6752

CCOC(=O)CC + CCCCCC
303.15 K, 101 kPa
Details | viscosity [mPa·s]
x1 = 0.1832 | 0.2997
x1 = 0.3971 | 0.3276
x1 = 0.4989 | 0.3451
x1 = 0.5988 | 0.3661
x1 = 0.8005 | 0.4138
